Source: patent publication US20150283120A1, “ANTIBIOTIC METHODS AND COMPOSITIONS FOR BACTERIA INFECTIONS” (THE UNIVERSITY OF CHICAGO, priority 2012, published 2015)
“Also recorded” adds a separate entry of the source. Counter-ions that a name gives are not always drawn.

Key:
Format in all cases: cell-based, Staphylococcus aureus
[1] = system: MRSA strain USA300 Pvra-lux; conditions: compound 10 μM + oxacillin 2 μg/mL; for RG avg (relative growth): ratio of OD600 to oxacillin alone, four runs
Procedure: (§1) In the secondary screen each microtiter plate contained either cells in TSB alone (16 replicates), cells with oxacillin (2 μg/mL, 31 replicates), or cells with test compound and oxacillin (2 μg/mL, 49 wells). Each compound was assayed in four separate biological replicates.
(§2) All compounds classified in the primary screen as synergists that were vraSR-stimulating or -repressing (as shown in Table 8) were screened in a secondary assay for their effects on both growth and Pvra::lux induction by oxacillin. […] Each compound was tested four separate times at 10 μM in the presence of oxacillin (2 μg/mL) and luminescence was measured every 15 minutes. Relative growth (RG) and relative luminescence (RL) was calculated as the ratio between the OD600 or max LU value in the presence of compound and oxacillin over the average from pooled control values obtained from the same plate. […] Compounds that produced an average RG (ratio of the OD600 of the culture grown with test compound combined with oxacillin to that of oxacillin alone) of <0.8 were classified as oxacillin synergists or potentiators. The relative luminescence (RL) was the ratio of the LU produced in the presence of the test compound combined with oxacillin to that produced by oxacillin alone. Compounds were classified as “vraSR repressors” (mean RL of <0.8), “vraSR stimulators”, (mean RL>1.2), and “vraSR neutral” (mean RL between 0.80-1.2). […] In contrast, 34 compounds had no effect on growth in the presence of oxacillin (“un” in the OD600 category). Among the oxacillin potentiators, there were 2 vraSR stimulators, 3 vraSR neutral compounds and 10 vraSR repressors.

[2] = system: vraSR transcription (Pvra::lux); conditions: compound 10 μM + oxacillin 2 μg/mL; for RL avg (relative luminescence): ratio of LU to oxacillin alone, four runs
Procedure: as §1, §2

vraR transcription = experiment: Tertiary screen: qRT-PCR of vraR in strain 923; conditions: for classification of lux screen result against qRT-PCR (true/false repressor or stimulator): in the presence of oxacillin; for Effect on vraSR Transcription: With oxacillin: compound 10 μM + oxacillin 2 μg/mL; for Effect on vraSR Transcription: Compound alone: compound 10 μM, no oxacillin
[3] = system: MRSA strain USA300-isolate 923; experiment: Checkerboard MIC testing of compounds with oxacillin
VRS1 = experiment: microbe, parasite or virus in culture; conditions: Staphylococcus aureus, read-out: MIC Van
Description: (§3) As shown in the analysis of the checkerboard assays (Table 6), gossypol fully potentiated vancomycin (FIC i<0.5) in hVISA, VISA, VRS2 and VRS1. […] Clomiphene partially potentiated vancomycin in hVISA, VISA, and VRS1 and it fully potentiated in strain VRS2.

VRS2 = experiment: microbe, parasite or virus in culture; conditions: Staphylococcus aureus, read-out: MIC Van
Description: as §3

hVISA 2275 = experiment: microbe, parasite or virus in culture; conditions: Staphylococcus aureus, read-out: MIC Van
Description: as §3

VISA 2283 = experiment: microbe, parasite or virus in culture; conditions: vancomycin alone; for MIC Van: VISA 2283
Description: as §3

| Compound | OD600 category [1] | RG avg (relative growth) [1] | Effect on vraSR transcription [2] | RL avg (relative luminescence) [2] | classification of lux screen result against qRT-PCR (true/false repressor or stimulator) (vraR transcription) | Effect on vraSR Transcription: With oxacillin (vraR transcription; qRT-PCR of vraR) | Effect on vraSR Transcription: Compound alone (vraR transcription; qRT-PCR of vraR) | other results |
| --- | --- | --- | --- | --- | --- | --- | --- | --- |
| CC1=CC(=O)c2ccccc2C1=O [Menadione, 2-Methylnaphthalene-1,4-dione] | inhibited (of <0.8 were classified as oxacillin synergists or potentiators) | 0.69 | repress (“vraSR repressors” (mean RL of <0.8)) | 0.47 | true vraSR expression repressors | vraR inhibitors; also recorded: repress |  | oxacillin MIC ([3]; strain 923, Men 10.8 μM): 16 µg/mL; oxacillin MIC ([3]; strain 923, Men 12.3 μM): 16 µg/mL; oxacillin MIC ([3]; strain 923, Men 14.1 μM): 16 µg/mL; oxacillin MIC ([3]; strain 923, Men 16.1 μM): 2 µg/mL; oxacillin MIC ([3]; strain 923, Men 18.4 μM): 2 µg/mL; oxacillin MIC ([3]; strain 923, Men 21 μM): 2 µg/mL; oxacillin MIC ([3]; strain 923, Men 24 μM): 2 µg/mL; FICi (FIC index) with oxacillin ([3]; strain 923, in at least one combination (well)): > 0.5; MIC of oxacillin ([3]; strain 923, menadione at 16 μM): 2 µg/mL |
| CN[C@H](CC(C)C)C(=O)N[C@H]1C(=O)N[C@@H](CC(N)=O)C(=O)N[C@H]2C(=O)N[C@H]3C(=O)N[C@H](C(=O)N[C@H](C(=O)O)c4cc(O)cc(O)c4-c4cc3ccc4O)[C@H](O)c3ccc(c(Cl)c3)Oc3cc2cc(c3O[C@@H]2O[C@H](CO)[C@@H](O)[C@H](O)[C@H]2O[C@H]2C[C@](C)(N)[C@H](O)[C@H](C)O2)Oc2ccc(cc2Cl)[C@H]1O [vancomycin] |  |  |  |  |  |  |  | MIC (VRS1): 1020 µg/mL; MIC (VRS2): 16 µg/mL; MIC (hVISA 2275): 4 µg/mL; MIC (VISA 2283; Staphylococcus aureus, VISA, read-out: MIC Van, VISA 2283): 16 µg/mL; MIC Van (VISA 2283): 8 µg/mL; MIC Van (VISA 2283; listed as Van): 8 µg/mL |
| CC/C(=C(/CC)c1ccc(O)cc1)c1ccc(O)cc1 [Diethylstilbestrol] | inhibited (of <0.8 were classified as oxacillin synergists or potentiators) | 0.41 | repress (“vraSR repressors” (mean RL of <0.8)) | 0.26 |  | super-stimulate | None | Effect on vraSR Transcription: With oxacillin (vraR transcription; qRT-PCR of vraR, listed as diethylstilbesterol): enhanced oxacillin's effect on vraR transcription |
| CO[C@H]1C[C@H](O[C@H]2[C@H](C)[C@@H](O[C@@H]3O[C@H](C)C[C@H](N(C)C)[C@H]3O)[C@@H](C)C[C@@]3(CO3)C(=O)[C@H](C)[C@@H](O)[C@@H](C)[C@@H](C)OC(=O)[C@@H]2C)O[C@@H](C)[C@@H]1O [Oleandomycin phosphate, (3R,5R,6S,7R,8R,11R,12S,13R,14S,15S)-14-((2S,3R,4S,6R)-4-(dimethylamino)-3-hydroxy-6-methyltetrahydro-2H-pyran-2-yloxy)-6-hydroxy-12-((2R,4S,5S,6S)-5-hydroxy-4-methoxy-6-methyltetrahydro-2H-pyran-2-yloxy)-5,7,8,11,13,15-hexamethyl-1,9-dioxaspiro[2.13]hexadecane-4,10-dione] | inhibited (of <0.8 were classified as oxacillin synergists or potentiators) | 0.19 | repress (“vraSR repressors” (mean RL of <0.8)) | 0.20 | true vraSR expression repressors | repress |  |  |
| CCn1cc(C(=O)O)c(=O)c2cc(F)c(N3CCNCC3)cc21 [Norfloxacin, 1-ethyl-6-fluoro-4-oxo-7-piperazin-1-yl-1H-quinoline-3-carboxylic acid] | inhibited (of <0.8 were classified as oxacillin synergists or potentiators) | 0.40 | repress (“vraSR repressors” (mean RL of <0.8)) | 0.33 | true vraSR expression repressors | repress |  | change of the MIC of oxacillin with compound concentration ([3]; strain 923, checkerboard): dose dependent decrease |
| C#C[C@]1(O)CC[C@H]2[C@@H]3CCC4=CCCC[C@@H]4[C@H]3CC[C@@]21C [Lynestrenol] | inhibited (of <0.8 were classified as oxacillin synergists or potentiators) | 0.47 | repress (“vraSR repressors” (mean RL of <0.8)) | 0.26 |  |  | stimulate |  |
| CN(C)CCn1nnnc1SCC1=C(C(=O)O)N2C(=O)[C@@H](NC(=O)Cc3csc(N)n3)[C@H]2SC1 [Cefotiam hydrochloride] | inhibited (of <0.8 were classified as oxacillin synergists or potentiators) | 0.64 | neutral (“vraSR neutral” (mean RL between 0.80-1.2)) | 0.64 |  |  | stimulate | Effect on vraSR Transcription: With oxacillin (vraR transcription; qRT-PCR of vraR, hydrochloride): vraR activator |
| O=C1NCN(c2ccccc2)C12CCN(CCCC(c1ccc(F)cc1)c1ccc(F)cc1)CC2 [Fluspirilen] | inhibited (of <0.8 were classified as oxacillin synergists or potentiators) | 0.47 | stimulate (“vraSR stimulators”, (mean RL>1.2)) | 0.28 |  | vraR neutral | none | Effect on vraSR transcription (summary) (vraR transcription; qRT-PCR of vraR, alone and with oxacillin): No effect; Effect on vraSR Transcription: With oxacillin (vraR transcription; qRT-PCR of vraR, listed as fluspirilene): none |
